Like-named read-outs stand apart in the source and are kept apart here.
Experiments:
[1] = test system: patients with type 2 diabetes; details: human, in vivo; for patients who had adverse events: 24 weeks
Description: Laboratory results were then reviewed for these particular patients to determine which patients actually had clinically important changes in a given laboratory parameter.

patients with T2DM = details: cited from earlier work
[2] = monotherapy, 100 or 200 mg daily

Row | SMILES | patients who had adverse events [1] [%] | clinically important decreases in any hematological parameter attributable to drug [1] | responsibility for clinically meaningful elevations in ALT and AST [1] | weight gain (patients with T2DM; 24-week monotherapy studies) | patients achieving a HbA1C of <7% (patients with T2DM; 24-week, background pioglitazone (30 or 45 mg daily)) [%] | mean HbA1C reduction (patients with T2DM; 24-week, sitagliptin 100 mg daily add-on to pioglitazone (30 or 45 mg daily), mean baseline HbA1C 8.1%) [%] | HbA1C (patients with T2DM; [2]) | hypoglycemia (patients with T2DM; [2]) | fasting and postprandial glycaemia (patients with T2DM; monotherapy) | mean placebo-subtracted reduction in HbA1C (patients with T2DM; sitagliptin 100 mg daily added to at least 1,500 mg per day of metformin) [%] | patients achieving a HbA1C of <7% (patients with T2DM; sitagliptin 100 mg daily added to at least 1,500 mg per day of metformin, mean baseline HbA1C 8%) [%]
1 | CN(C)C(=N)N=C(N)N [metformin] | 10 |  |  |  |  |  |  |  |  |  | 
2 | N[C@@H](CC(=O)N1CCn2c(nnc2C(F)(F)F)C1)Cc1cc(F)c(F)cc1F [sitagliptin, Sitagliptin] | 8 | no patient experienced clinically important decreases | not responsible for the variations | no significant weight gain | 45.4 | 0.7 | significantly reduced | no significant increase in hypoglycemia | reduced both fasting and postprandial glycaemia | 0.65 | 47

From US20080064701A1, “Anti-diabetic combinations” (priority 2007, published 2008)
